The record followed here is publication PMC12772150, “PIP2 corrects an endothelial Piezo1 channelopathy” (Proceedings of the National Academy of Sciences of the …, 2025).

In test [1] the target is T1, Piezo1 (Mus musculus, UniProt E2JF22).
T1 construct: native channel in freshly isolated brain capillary endothelial cells
The test is described as follows: single-channel patch clamp (cell-attached concentration-response with Yoda1; outside-out patches with PIP2 in pipette). Type of test: cell-based. Background: The patch-clamp technique gives a direct electrical read-out from membranes.

The target of test [2] is T2, Piezo1 (Mus musculus, UniProt E2JF22, R2482H).
T2 construct: mutant channel in capillary endothelial cells of Piezo1EC-Mutant mice
The test is described as follows: cell-attached single-channel patch clamp, […] PIP2, no Yoda1 ([…] inhibition). Type of test: cell-based.

T2 sequence (E2JF22 whole entry R2482H): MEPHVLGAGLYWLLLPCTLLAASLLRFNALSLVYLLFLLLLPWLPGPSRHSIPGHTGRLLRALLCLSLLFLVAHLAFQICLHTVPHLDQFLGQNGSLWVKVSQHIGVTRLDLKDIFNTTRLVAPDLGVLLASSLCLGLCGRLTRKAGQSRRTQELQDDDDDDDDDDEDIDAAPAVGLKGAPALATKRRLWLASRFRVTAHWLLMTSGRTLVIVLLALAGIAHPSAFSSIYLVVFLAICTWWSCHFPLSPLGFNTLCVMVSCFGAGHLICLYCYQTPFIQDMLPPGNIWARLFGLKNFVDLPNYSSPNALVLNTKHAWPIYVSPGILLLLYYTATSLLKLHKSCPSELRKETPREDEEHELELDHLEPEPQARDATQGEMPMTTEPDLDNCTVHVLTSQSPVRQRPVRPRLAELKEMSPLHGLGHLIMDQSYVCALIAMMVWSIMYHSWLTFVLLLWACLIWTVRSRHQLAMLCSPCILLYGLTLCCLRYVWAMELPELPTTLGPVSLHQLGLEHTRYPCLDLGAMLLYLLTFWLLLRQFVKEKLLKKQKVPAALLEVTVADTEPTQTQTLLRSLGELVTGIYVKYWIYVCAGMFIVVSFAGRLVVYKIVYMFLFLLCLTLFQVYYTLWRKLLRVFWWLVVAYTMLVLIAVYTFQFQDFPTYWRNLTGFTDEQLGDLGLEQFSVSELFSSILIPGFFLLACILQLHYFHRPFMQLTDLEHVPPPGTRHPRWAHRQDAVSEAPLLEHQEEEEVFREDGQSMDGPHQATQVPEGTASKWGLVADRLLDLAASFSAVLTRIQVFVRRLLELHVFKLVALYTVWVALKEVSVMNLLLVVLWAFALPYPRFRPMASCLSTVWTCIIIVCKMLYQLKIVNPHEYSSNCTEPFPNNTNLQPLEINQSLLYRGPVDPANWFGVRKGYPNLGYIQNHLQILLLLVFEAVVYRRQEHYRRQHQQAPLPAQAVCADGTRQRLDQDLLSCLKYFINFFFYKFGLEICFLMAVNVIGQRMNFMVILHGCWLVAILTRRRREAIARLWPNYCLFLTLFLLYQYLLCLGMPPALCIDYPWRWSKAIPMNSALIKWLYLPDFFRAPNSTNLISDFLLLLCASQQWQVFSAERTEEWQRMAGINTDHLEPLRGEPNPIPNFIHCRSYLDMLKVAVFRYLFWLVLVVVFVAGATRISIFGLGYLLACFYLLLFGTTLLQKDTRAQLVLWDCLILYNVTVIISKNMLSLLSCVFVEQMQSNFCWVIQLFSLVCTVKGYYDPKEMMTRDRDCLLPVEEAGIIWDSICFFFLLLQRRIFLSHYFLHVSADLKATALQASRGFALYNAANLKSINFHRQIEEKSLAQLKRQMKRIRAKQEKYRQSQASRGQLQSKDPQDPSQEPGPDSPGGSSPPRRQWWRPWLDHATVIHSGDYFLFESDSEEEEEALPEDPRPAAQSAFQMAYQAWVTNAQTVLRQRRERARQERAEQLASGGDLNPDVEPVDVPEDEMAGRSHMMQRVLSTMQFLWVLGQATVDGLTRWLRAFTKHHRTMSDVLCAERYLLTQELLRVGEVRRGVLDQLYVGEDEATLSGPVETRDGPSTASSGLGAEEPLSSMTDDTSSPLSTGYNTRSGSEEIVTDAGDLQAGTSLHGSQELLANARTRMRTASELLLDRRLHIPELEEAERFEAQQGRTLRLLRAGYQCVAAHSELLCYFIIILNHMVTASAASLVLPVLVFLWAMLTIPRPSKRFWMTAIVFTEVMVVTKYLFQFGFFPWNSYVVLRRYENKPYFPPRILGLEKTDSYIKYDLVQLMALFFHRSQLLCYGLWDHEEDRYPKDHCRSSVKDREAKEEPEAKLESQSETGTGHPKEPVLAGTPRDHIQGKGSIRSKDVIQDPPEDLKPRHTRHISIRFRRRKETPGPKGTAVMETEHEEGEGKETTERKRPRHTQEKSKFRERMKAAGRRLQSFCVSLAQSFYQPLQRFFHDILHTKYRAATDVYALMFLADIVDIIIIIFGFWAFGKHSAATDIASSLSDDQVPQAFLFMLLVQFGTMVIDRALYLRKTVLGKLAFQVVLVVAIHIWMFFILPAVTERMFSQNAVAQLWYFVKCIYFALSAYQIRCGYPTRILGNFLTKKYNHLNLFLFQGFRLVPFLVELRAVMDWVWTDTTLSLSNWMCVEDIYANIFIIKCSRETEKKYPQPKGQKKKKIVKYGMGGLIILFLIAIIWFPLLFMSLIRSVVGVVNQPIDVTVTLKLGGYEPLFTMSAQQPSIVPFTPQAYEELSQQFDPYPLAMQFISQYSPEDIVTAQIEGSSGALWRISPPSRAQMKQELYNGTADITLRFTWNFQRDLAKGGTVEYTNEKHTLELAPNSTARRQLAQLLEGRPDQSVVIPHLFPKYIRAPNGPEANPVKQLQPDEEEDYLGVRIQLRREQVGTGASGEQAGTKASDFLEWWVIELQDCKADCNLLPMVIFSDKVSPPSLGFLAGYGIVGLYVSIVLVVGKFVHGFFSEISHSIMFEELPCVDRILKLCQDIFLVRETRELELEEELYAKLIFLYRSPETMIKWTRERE
T1 sequence (E2JF22 whole entry): as the sequence (E2JF22 whole entry R2482H) above, with H2482R counted along it

For orientation: IC50 means the point on the concentration scale where inhibition reaches its midpoint. Low readings indicate inhibition by little substance, high ones a need for much substance. As usually defined, the inhibition is the percentage by which the read-out fell short of the control. Read a low inhibition as little suppression. As to `CCCCCCCCCCCCCCCC(=O)OC[C@H](COP(=O)(O)O[C@@H]1[C@H](O)[C@H](O)[C@@H](OP(=O)(O)O)[C@H](OP(=O)(O)O)[C@H]1O)OC(=O)CCCCCCCCCCCCCCC` [diC16-PIP2], the half-maximal inhibitory concentration (IC50) in test [1] is ~300 nM. Besides, the inhibition at 10 µM in test [2] is 50%.
